Experimental data reported in patent US10774122B2, “ERG targeted therapy” (The Regents of the University of Michigan, priority 2017, dated 2020).
Where a SMILES comes first, the peptide text is derived from it. [ ]: non-standard residue; d: D form.

How the values were obtained:
[1] = test system: ERG and DNA-PKcs enrichment at ERG-regulated genomic loci; format: cell-based
Description: VCaP cells were grown in complete medium and treated with peptidomimetics 12 hours prior to harvesting cells. ChIP assays were carried out as previously described (Brenner et al., 2011; supra; Yu et al., 2010; supra) using antibodies against ERG (Santa Cruz, # sc-354), DNA-PKcs (BD Biosciences, #610805), rabbit IgG (Santa Cruz, # sc-2027) or mouse IgG (Santa Cruz, # sc-2025). Briefly, chromatin collected from formaldehyde crosslinked and lysed cells was sonicated to an average length of 600 bp. Supernatants containing chromatin fragments were pre-cleared using protein A/G beads (Upstate) and incubated with 3-5 μg of ERG antibody or IgG overnight prior to the addition of […] of protein A/G beads for 1 hour. Antibody-bead precipitates were then washed six times and antibody/protein/DNA complexes were eluted with 150 μl IP elution buffer (50 mM […], 1% SDS). To reverse the crosslinks, the complexes were incubated in elution buffer containing 10 μg RNase A and 0.3 M NaCl at 67° C. for 4-5 hours. DNA/protein complexes were then precipitated with ethanol, air-dried, and dissolved in 100 μl of TE. Protein was then digested by incubation with proteinase K at 45° C. for 1 hour and DNA was purified using a QIAGEN PCR column according to the manufacturer's protocol. QPCR was performed using appropriate primers as previously described (Brenner et al., 2011; supra).

[2] = test system: VCaP cells; parameters: species or system chicken embryo; details: in vivo, 25 mg/kg
Description: The CAM assays were performed as described previously (Brenner et al., 2011; supra). Briefly, fertilized eggs were incubated in a rotary humidified incubator at 38° C. for 10 days. First the CAM was released by applying mild pressure to the hole over the air sac and cutting a square 1 cm^2 window encompassing a second hole near the allantoic vein. Then cultured VCaP cells that stably express Cherry Red and pre-treated with peptidomimetics as indicated were detached by trypsinization and re-suspended in complete medium and 2×10^6 cells were implanted adjacent to the mesenchyme in each egg. The windows were subsequently sealed and the eggs were returned to a stationary incubator. For invasion and intravasation experiments, implanted eggs were treated with 25 mg/kg body weight of the peptidomimetics 6 hrs after inoculation and both the upper and lower CAM were isolated after 72 hr. Invasive cells were processed and stained for chicken collagen IV as previously described (Brenner et al., 2011; supra). […] The embryonic lungs were harvested and analyzed for the presence of tumor cells by quantitative human alu-specific PCR. […] Quantification of human cells in the extracted DNA was carried out as described (van der Horst et al., Biotechniques 37, 940-942, 944, 946 2004). Fluorogenic TaqMan qPCR probes were used as described above, and DNA copy numbers were quantified.

[3] = test system: ERG targets such as TDRD1, ARHGDIB, NDRG1 and CACNA1D; parameters: species or system mice; details: mouse, in vivo
Description: Total RNA was isolated from VCaP cells and tumors using Qiazol following the manufacturer's protocol (Qiagen). Quantitative PCR (QPCR) was performed using SYBR Green dye on an Applied Biosystems 7300 Real Time PCR system (Applied Biosystems) as described (Tomlins et al., 2005). Briefly, 2 μg of total RNA was reverse transcribed into cDNA using SuperScript III (Invitrogen) in the presence of random primers (Invitrogen). All reactions were performed in triplicate with SYBR Green Master Mix (Applied Biosystems) and 25 ng of forward and reverse primer according to the manufacturer's recommended thermocycling conditions, and then subjected to melt curve analysis. Threshold levels for each experiment were set during the exponential phase of the QPCR reaction using Sequence Detection Software version 1.2.2 (Applied Biosystems). The relative quantity of the target gene was calculated for each sample using the ΔΔCt method by the comparing mean Ct of the gene to the average Ct of the housekeeping gene, […] (Livak and Schmittgen, 2001). All oligonucleotide primers were synthesized by Integrated DNA Technologies (Coralville, Iowa). The primer sequences for the transcript analyzed were previously described (Brenner et al., 2011; supra).

[4] = test system: PC3 (ERG fusion-negative) xenografts; experiment: PC3 xenograft mouse model, tumor growth; details: 25 mg/kg, compared to mutant peptidomimetic
Description: Athymic Nude-Foxnlnu male mice were procured from Harlan Laboratories, Inc (Indianapolis, Ind.). All procedures involving mice were approved by the University Committee on Use and Care of Animals (UCUCA) at the University of Michigan and conformed to their relevant regulatory standards. […] Statistical significance for Kaplan-Meier analysis was determined by the log-rank (Mantel-Cox) test.
Athymic Nude-Foxnlnu male mice were procured from Harlan Laboratories, Inc. (Indianapolis, Ind.). VCaP (2×10^6 cells) or PC3 (5×10^5 cells) were resuspended in 100 μl of saline with 50% Matrigel (BD Biosciences, Becton Drive, NJ) and implanted subcutaneously into the flank regions on both sides of the mice. Mice were anesthetized using a cocktail of xylazine (80-120 mg/kg, IP) and ketamine (10 mg/kg, IP) for chemical restraint before tumor cells implantation. For short term assays, all tumors were staged for three weeks before starting peptidomimetic treatment. […]
Tumor growth was recorded every three days using digital calipers and tumor volumes were calculated using the formula (π/6) (L×W2), where L=length of tumor and W=width. Body weight was monitored weekly over the course of the study. […] Statistical significance for Kaplan-Meier analysis was determined by the log-rank (Mantel-Cox) test. […]

[5] = target: T1, ERG (Homo sapiens, UniProt P11308); experiment: ERG:peptide binding by biolayer interferometry (OctetRED)
T1 sequence (P11308 1-479): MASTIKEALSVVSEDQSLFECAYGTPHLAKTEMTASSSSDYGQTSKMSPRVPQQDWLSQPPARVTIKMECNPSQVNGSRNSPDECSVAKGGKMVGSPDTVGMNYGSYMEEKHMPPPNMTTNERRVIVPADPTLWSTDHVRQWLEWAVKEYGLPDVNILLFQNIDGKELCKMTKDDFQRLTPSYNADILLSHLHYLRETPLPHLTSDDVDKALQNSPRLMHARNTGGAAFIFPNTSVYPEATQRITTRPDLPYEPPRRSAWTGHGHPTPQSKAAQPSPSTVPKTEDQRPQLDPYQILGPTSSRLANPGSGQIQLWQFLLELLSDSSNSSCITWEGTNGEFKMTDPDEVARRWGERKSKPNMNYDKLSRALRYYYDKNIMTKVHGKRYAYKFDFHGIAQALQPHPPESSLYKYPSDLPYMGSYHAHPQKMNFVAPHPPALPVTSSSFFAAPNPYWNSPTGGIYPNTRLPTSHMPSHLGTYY
Description: The interaction coefficients between ERG and synthetic peptides or peptidomimetics were determined by biolayer interferometry technology using the Octet Red system (ForteBio). Purified ERG and GUS proteins were biotinylated by EZLink NHS-PEG4 Biotinylation Kit (Thermo Scientific) following the manufacturer's protocol and any unincorporated biotin was removed from the reactions with Zeba 2 ml desalt columns (Thermo). Biotinylated proteins (500 μg/ml) were then incubated with super streptavidin biosensors in binding buffer (20 mM HEPES pH 7.4, 150 mM NaCl), blocked with 10 μg/ml biocytin and washed three times in binding buffer. Peptides were serially diluted in binding buffer, mixed with the protein-coupled biosensors and peptidomimetic:protein association/dissociation was monitored for 10 min at 25° C. Nonspecific binding from the signal obtained from peptidomimetic:GUS interactions was subtracted from that of peptidomimetic:ERG interactions and baseline signal drift was controlled by monitoring immobilized ERG without peptide. Octet Red analysis software was used to analyze the data.

[6] = target: ERG protein (Homo sapiens, UniProt P11308); details: mouse, in vivo
Description: VCaP cells were seeded in 6-well plates at 0.5×10^6 cells/ml and after allowing cells to attach, cells were harvested and homogenized in NP40 lysis buffer (Sigma) containing a complete protease inhibitor cocktail (Roche). Ten micrograms of each protein extract was boiled in SDS sample buffer, size fractionated by SDS-PAGE, and transferred onto a PVDF membrane (GE Healthcare). […] Following three washes in TBS-T, the blots were incubated with horseradish peroxidase conjugated secondary antibody and the signals visualized by enhanced chemiluminescence system according to manufacturer's instructions (GE Healthcare).
Cell pellets or tumors treated with or without the peptidomimetics were lysed in cell lysis buffer (20 mM MOPS, pH 7.0, 2 mM EGTA, 5 mM EDTA, 30 mM sodium fluoride, 60 mM β-glycerophosphate, 20 mM sodium pyrophosphate, 1 mM sodium orthovanadate, 1% Triton X-100, 1 mM DTT, protease inhibitor cocktail (Roche)). Cell lysates (0.5-1.0 mg) were pre-cleaned with protein A/G agarose beads (Santa Cruz) by incubation for 1 hour with shaking at 4° C. followed by centrifugation at 2000 rpm for 3 minute. Lysates were then incubated with 2 μg ERG antibody (Santa Cruz, C-17) at 4° C. for 4 hours with shaking prior to addition of 20 μl protein A/G agarose beads and incubated at 4° C. overnight. […] Samples were then analyzed by SDS-PAGE and Western blot analysis as described above.

[7] = target: T1, ERG
Description: This technique was applied to evaluate the target binding specificity of RI-EIPs. […] All CETSAs were performed after 3 hours treatment with the peptidomimetics at the indicated doses and temperatures.

**Q.** What does the source list for CC(C)C[C@@H](NC(=O)[C@H]1CCCN1C(=O)[C@H]1CCCN1C(=O)[C@@H](Cc1ccc(O)cc1)NC(=O)[C@@H](CC(C)C)NC(=O)[C@@H](Cc1ccccc1)NC(=O)[C@H](NC(=O)CNC(=O)CNC(=O)[C@@H](CCCNC(=N)N)NC(=O)[C@@H](CCCCN)NC(=O)[C@@H](CCCCN)NC(=O)[C@@H](CCCNC(=N)N)NC(=O)[C@@H](CCCNC(=N)N)NC(=O)[C@@H](CCC(N)=O)NC(=O)[C@@H](CCCNC(=N)N)NC(=O)[C@@H](CCCNC(=N)N)NC(=O)[C@@H](CCCNC(=N)N)NC(=O)CN)[C@H](C)O)C(=O)O [RI-EIP1] (H-G[dR][dR][dR][dQ][dR][dR][dK][dK][dR]GG[dT][dF][dL][dY][dP][dP][dL]-OH)?
**A.** ERG and DNA-PKcs enrichment at ERG-regulated genomic loci [1]: inhibits; ERG-mediated invasion and intravasation [2]: dramatically blocked; gene expression of ERG targets in VCaP tumors [3]: inhibited; tumor size of PC3 xenografts [4]: no difference in tumor size; Kd [5]: 940 nM; ERG protein in VCaP xenograft tumors [6]: substantial degradation; soluble ERG protein in VCaP versus HUVEC cells (CETSA) [7]: clear difference
